{"source": "patent US9427433B2", "about": "“Methods and compositions for enhancing fertility and/or inhibiting pregnancy failure and restoring glucose tolerance” (Queen's University at Kingston, priority 2011, dated 2016)", "format_in_all_cases": "in vivo, mouse", "key": {"[1]": {"test_system": "NZO mice fed a high fat diet", "test": "Implantation rate and resorption, comparison of macrolides", "experimental": "For the comparative evaluation of other macrolide drugs to tacrolimus, mice starting at 7 weeks of age were maintained on the high fat diet for a total of 13 weeks of study period. Mice were entered into the experiments when determined to be glucose intolerant as described above. Methods of drug administration and other experimental methods were as described above.\nPeri-implantation (E4.5) and post-implantation (E6.5) pregnant and/or pseudopregnant (E4.5bid and E6.5bid) mouse uteri were prepared after mating respectively with fertile and/or vasectomized males as previously described (Herington et al. Endocrinol 2009 150: 4404-4413). The morning of vaginal plug detection was considered as gestational day 0.5 (E0.5 or Gd.0.5). An average number of twenty Concanavalin A(ConA)-coated sepharose beads (average size of 0.1 mm-diameter) (Sigma-Aldrich, Burlington, Ontario, Canada) was injected into the lumen of the left uterine horn of anesthetized animals between hours 13:00 and 16:00 on day 2.5 of pseudopregnancy according to the procedure described by Herington et al. (Endocrinol, 2009 150: 4404-4413). With the use of Ketamine/Xyalzine anesthesia and cardiac puncture, all animals were sacrificed at the age of 16-18 weeks between the morning hours 09:00-11:00. Pregnant and pseudopregnant mice were sacrificed in the morning of days 4.5 and 6.5 of their respective pregnancy. Blood samples were collected from all animals and were let stand for 1 hour at room temperature before isolation of the serum. Serum samples were stored at −80° C. until they were analyzed for their steroid hormones and lipid contents by appropriate laboratory procedures such as radio-immunoassay (RIA) all of which were conducted at the Department of Clinical Chemistry (Kingston General Hospital, Kingston, Ontario, Canada). Ovaries, oviducts and uteri were carefully dissected out of carcasses and were placed in ice-cold phosphate buffered saline (PBS)-containing petri dishes. Under a dissecting microscope, uteri were carefully isolated from their attached uterine tubes, trimmed of all mesenteric fat and were immediately weighed. The numbers of corpora lutea and implantation sites (viable and resorbed) were counted, respectively, from E4.5 and E6.5 pregnant mouse ovaries and uteri. For protein and RNA extraction, virgin uteri and segments of uterine horns containing inter-implantation sites of pregnant and pseudopregnant uteri were transected and snapped frozen in liquid nitrogen.\nExamination of external morphological features of uteri of pregnant mice, including counts of implantation sites and photography was performed using a computerized dissecting microscope (Leica Diagnostic Instruments, USA) and the image acquisition and analytic software (SPOT 2.2.0). Percentage of peri-implantation embryo loss was calculated as described by Bindali and Kaliwal (Ind. Health, 2002 40:191-197), using the formula: % Preimplantation loss=[Total number of corpora lutea−Total number of implantation]/Total number of corpora lutea. Immunohistochemical localization and assessment of microscopic morphological features of implantation and inter-implantation sites in normoglycemic and diabetic NOD mice were performed on methacarn (60% methanol, 30% chloroform and 10% acetic acid)-fixed specimens. […]"}, "[2]": {"test_system": "60% high fat fed NZO and DIO mice", "test": "Glucose tolerance test after tacrolimus", "settings": "all treated type 2 diabetic and obese mice; FIG. 16B", "experimental": "Twenty NZO and DIO/B6 female mice were maintained on a high fat diet consisted of 60% kcal fat, 20% kcal protein and 20% kcal carbohydrate, with a total energy mass of 5.24 kcal/gm (D12492, Research Diets Inc.; […] Tacrolimus (Prograf (5 mg/ml), Astellas) was administered subcutaneously in a dose of 0.1 mg/kg q2d in 0.2 ml saline for three weeks to the obese and glucose intolerant NZO and DIO mice starting at the age of 10 weeks after which animals were mated to males of the same strain and pregnancy was dated from the morning of the positive detection of vaginal (copulation) plug. See FIG. 2. […] Briefly, basal glucose levels were measured for conscious mice individually caged in 1000 cc plastic mouse caging using a one-touch ultra glucose strips and meter (Acqui-check Aviva, Roche, Montreal, Canada) and approximately 30 microliters of blood obtained via tail venipuncture prior to fasting for six hours in cages equipped with hardwood bedding. Fasting blood glucose was recorded at the end of the six hours fasting period. […] Then after, blood glucose was recorded at 15, 30, 45, 60, 90 and 120 minutes respectively. For Si experiments blood glucose was determined only at 15 minutes. Glucose tolerance graphs were generated by blotting mean±standard error of the mean (SEM) of the recorded glucose data per mouse per minute collection time. […]"}, "[3]": {"test_system": "diabetic and obese mice fed with 60% fat", "test": "Serum lipid profile", "settings": "60% fat for 12 weeks; day 4.5 post-coitum", "excerpt": "FIGS. 22A to 22H show results of tacrolimus restoring normal lipid profile in all treated diabetic and obese mice fed with 60% fat for 12 weeks. Normal serum levels of Triglycerides (FIG. 22A and FIG. 22B), Total Cholesterol (FIG. 22C and FIG. 22D), High-density Lipoprotein (HDL) Cholesterol (FIG. 22E and FIG. 22F) and lipid Ratio representing the overall lipid profile (FIG. 22G and FIG. 22H) were obtained after the administration of tacrolimus to the diabetic and obese mice despite their continued high fat calorie intake. Blood samples were taken at day 4.5 post-coitum and values on the Y-axis are plotted as power of 10."}}}
{"smiles": "C=CC[C@@H]1/C=C(\\C)C[C@H](C)C[C@H](OC)[C@H]2O[C@@](O)(C(=O)C(=O)N3CCCC[C@H]3C(=O)O[C@H](/C(C)=C/[C@@H]3CC[C@@H](O)[C@H](OC)C3)[C@H](C)[C@@H](O)CC1=O)[C@H](C)C[C@@H]2OC", "note": "[tacrolimus]", "values": [{"measurement": "fertility-enhancing effect compared with the other macrolides", "setting": "[1]; NZO mice, high fat diet", "result": "greater comparative effects"}, {"measurement": "embryonic and fetal absorption rate", "setting": "[1]; same treatments, vs vehicle, p<0.05", "result": "significantly reduced embryonic and fetal absorption rate"}, {"measurement": "implantation rate", "setting": "[1]; tacrolimus 0.05 and 0.1 mg/kg, pimecrolimus 0.1 mg/kg, sirolimus 0.1 mg/kg s.c. every other day for three weeks, vs vehicle", "result": "significantly improved implantation rate (p<0.05)"}, {"measurement": "glucose tolerance", "setting": "[2]", "result": "restored normal glucose tolerance"}, {"measurement": "lipid profile (triglycerides, total cholesterol, HDL cholesterol, lipid ratio)", "setting": "[3]", "result": "restored normal lipid profile"}]}
